Experimental data reported in patent US12643910B2, “Substituted pyrazolo[3,4-b]pyridines as ectonucleotide pyrophosphatase/phosphodiesterase 1 (ENPP1) modulators” (SANFORD BURNHAM PREBYS MEDICAL DISCOVERY INSTITUTE, priority 2019, dated 2026).

Columns and labels:
human ENPP1 = molecular target: T1, human ENPP1 (Homo sapiens, UniProt P22413); assay: ENPP1 assay with ATP substrate (Transcreener AMP2/GMP2 TR-FRET); type: biochemical; settings: 1 hour at room temperature
T1 construct: made in house
T1 sequence (P22413 1-925): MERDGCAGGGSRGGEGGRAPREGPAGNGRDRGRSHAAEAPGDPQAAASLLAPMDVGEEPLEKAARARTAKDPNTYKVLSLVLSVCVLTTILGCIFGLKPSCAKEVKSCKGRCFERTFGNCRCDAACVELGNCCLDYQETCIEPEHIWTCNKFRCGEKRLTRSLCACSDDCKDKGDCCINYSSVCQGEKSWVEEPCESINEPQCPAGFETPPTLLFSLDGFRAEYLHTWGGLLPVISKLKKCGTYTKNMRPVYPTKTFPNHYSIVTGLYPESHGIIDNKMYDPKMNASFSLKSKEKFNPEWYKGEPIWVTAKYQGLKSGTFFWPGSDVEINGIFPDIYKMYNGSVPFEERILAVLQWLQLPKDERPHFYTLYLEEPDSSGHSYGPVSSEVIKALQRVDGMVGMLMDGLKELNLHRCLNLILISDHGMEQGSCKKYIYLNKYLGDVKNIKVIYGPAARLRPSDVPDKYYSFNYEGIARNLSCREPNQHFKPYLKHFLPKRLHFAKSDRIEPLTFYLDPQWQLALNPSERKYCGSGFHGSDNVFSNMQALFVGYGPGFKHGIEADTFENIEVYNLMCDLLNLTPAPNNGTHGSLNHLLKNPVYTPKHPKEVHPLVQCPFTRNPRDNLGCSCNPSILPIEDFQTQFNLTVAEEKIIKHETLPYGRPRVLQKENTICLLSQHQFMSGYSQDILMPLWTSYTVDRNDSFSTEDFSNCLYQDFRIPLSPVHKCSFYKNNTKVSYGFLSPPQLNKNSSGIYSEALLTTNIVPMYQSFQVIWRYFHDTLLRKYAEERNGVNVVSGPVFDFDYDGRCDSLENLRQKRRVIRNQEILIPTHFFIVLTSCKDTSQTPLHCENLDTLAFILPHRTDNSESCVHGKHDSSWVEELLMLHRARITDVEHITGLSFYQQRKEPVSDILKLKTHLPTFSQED
Summary of the method: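 Reaction ran 1 h at room temperature in pH 7.5 Tris with MgCl2, TCEP, Tween 20 and 1% DMSO. ATP was added as a 300 nM stock and enzyme as an 8.5 μM stock. After EDTA stop, AMP was read by TR-FRET tracer displacement. Percent inhibition used enzyme/no-enzyme controls; IC50 was fitted with a variable slope.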

ENPP3 = molecular target: T2, ENPP3 (Homo sapiens, UniProt O14638); assay: ENPP3 Km ATP assay; type: biochemical; settings: ATP at Km
T2 sequence (O14638 1-875): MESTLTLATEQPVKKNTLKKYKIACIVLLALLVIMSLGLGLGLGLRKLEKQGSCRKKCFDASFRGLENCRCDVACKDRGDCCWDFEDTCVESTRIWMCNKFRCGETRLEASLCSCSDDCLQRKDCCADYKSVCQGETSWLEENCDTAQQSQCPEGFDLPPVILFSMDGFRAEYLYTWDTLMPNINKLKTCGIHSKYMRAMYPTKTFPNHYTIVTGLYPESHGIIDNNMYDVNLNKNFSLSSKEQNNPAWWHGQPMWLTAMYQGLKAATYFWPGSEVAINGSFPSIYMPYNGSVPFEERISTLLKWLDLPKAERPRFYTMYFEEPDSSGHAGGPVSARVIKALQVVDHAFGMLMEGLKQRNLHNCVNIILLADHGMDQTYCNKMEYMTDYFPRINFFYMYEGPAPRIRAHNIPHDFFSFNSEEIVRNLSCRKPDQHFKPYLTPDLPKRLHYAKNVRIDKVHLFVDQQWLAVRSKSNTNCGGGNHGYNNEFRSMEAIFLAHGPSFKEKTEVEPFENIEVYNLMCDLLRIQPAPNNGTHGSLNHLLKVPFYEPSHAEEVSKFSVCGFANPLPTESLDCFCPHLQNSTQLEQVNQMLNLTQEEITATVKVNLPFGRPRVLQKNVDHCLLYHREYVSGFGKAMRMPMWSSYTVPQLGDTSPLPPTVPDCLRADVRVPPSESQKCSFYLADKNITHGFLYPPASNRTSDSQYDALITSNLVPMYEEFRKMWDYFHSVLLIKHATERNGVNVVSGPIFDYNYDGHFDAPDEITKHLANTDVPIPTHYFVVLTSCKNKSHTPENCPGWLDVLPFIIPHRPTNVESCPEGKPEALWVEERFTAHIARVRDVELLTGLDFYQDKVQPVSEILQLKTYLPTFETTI

| Structure (SMILES) | IC50 (human ENPP1) [µM] | IC50 (ENPP3) [µM] |
| --- | --- | --- |
| CCNc1nc(NCc2ccc(S(N)(=O)=O)cc2)c2cnn(C)c2n1 [Example 2.49, 4-(((6-(Ethylamino)-1-methyl-1H-pyrazolo[3,4-d]pyrimidin-4-yl)amino)methyl)-benzenesulfonamide] | 0.1 to 1 | 0.1 to 1 |
| Cn1ncc2c(NCc3ccc(S(N)(=O)=O)c(C(F)(F)F)c3)ccnc21 [Example 2.62, 4-(((1-Methyl-1H-pyrazolo[3,4-b]pyridin-4-yl)amino)methyl)-2-(trifluoromethyl)-benzenesulfonamide] | < 0.1 | 0.1 to 1 |
